In publication PMC8286840, “Identifying SARS-CoV-2 antiviral compounds by screening for small molecule inhibitors of Nsp3 papain-like protease” (Biochemical Journal, 2021):
Where a name gives a salt, the structure may show the parent alone. Read-outs that look alike come from different tables or passages of the source.

Key:
[1] = molecular target: T1, SARS-CoV-2 PLpro (nsp3 1564–1878) (Severe acute respiratory syndrome coronavirus 2, UniProt P0DTD1); experiment: biochemical; parameters: FRET-quenched peptide (Pro3) cleavage by PLpro, 10 min pre-incubation, slope over 20 min, normalised to no-compound control; conditions: high concentration screen, read-out: % of control remaining
[2] = molecular target: T1, SARS-CoV-2 PLpro (nsp3 1564–1878); experiment: biochemical; parameters: FRET-quenched peptide (Pro3) cleavage by PLpro, 10 min pre-incubation, slope over 20 min, normalised to no-compound control; conditions: low concentration screen, read-out: % of control remaining

Cn1cnc2c1c(=O)[nH]c(=O)n2C [Theobromine]
remaining activity at 3.75 µM ([1]; Well no.=1479): 97.3% | remaining activity at 3.75 µM ([1]; Well no.=3491): 96.4% | remaining activity at 3.75 µM ([1]; Well no.=6387): 102% | remaining activity at 3.75 µM ([1]; Well no.=8067): 104% | remaining activity at 1.25 µM ([2]; Well no.=1479): 96.7% | remaining activity at 1.25 µM ([2]; Well no.=3491): 95.7% | remaining activity at 1.25 µM ([2]; Well no.=6387): 101% | remaining activity at 1.25 µM ([2]; Well no.=8067): 106%

c1ccc2[nH]c(-c3cscn3)nc2c1 [Thiabendazole]
remaining activity at 3.75 µM ([1]; Well no.=4622): 98.1% | remaining activity at 1.25 µM ([2]; Well no.=4622): 100%

Cc1ncc(C[n+]2csc(CCO)c2C)c(N)n1 [Thiamine HCl (Vitamin B1)]
remaining activity at 3.75 µM ([1]; Well no.=4638): 96.6% | remaining activity at 1.25 µM ([2]; Well no.=4638): 94.5%

CS(=O)(=O)c1ccc([C@H](O)[C@@H](COC(=O)CN)NC(=O)C(Cl)Cl)cc1 [Thiamphenicol glycinate]
remaining activity at 3.75 µM ([1]; Well no.=2025): 108% | remaining activity at 1.25 µM ([2]; Well no.=2025): 109%

O=C(NCc1ccccc1)c1csc(Nc2ccncn2)n1 [Thiazovivin]
remaining activity at 3.75 µM ([1]; Well no.=4867): 102% | remaining activity at 1.25 µM ([2]; Well no.=4867): 100%

NC(=S)c1ccc[n+]([C@@H]2O[C@H](COP(=O)([O-])OP(=O)(O)OC[C@H]3O[C@@H](n4cnc5c(N)ncnc54)[C@H](OP(=O)(O)O)[C@@H]3O)[C@@H](O)[C@H]2O)c1 [Thio-NADP sodium]
remaining activity at 3.75 µM ([1]; Well no.=1481): 93.5% | remaining activity at 1.25 µM ([2]; Well no.=1481): 98%

Nc1nc2[nH]cnc2c(=S)[nH]1 [Thioguanine]
remaining activity at 3.75 µM ([1]; Well no.=4624): 102% | remaining activity at 1.25 µM ([2]; Well no.=4624): 102%

S=C(NC1CCCCC1)N1CCC(c2cnc[nH]2)CC1 [Thioperamide maleate]
remaining activity at 3.75 µM ([1]; Well no.=1234): 104% | remaining activity at 1.25 µM ([2]; Well no.=1234): 102%

CSc1ccc2c(c1)N(CCC1CCCCN1C)c1ccccc1S2 (stereo not shown) [Thioridazine (hydrochloride)]
remaining activity at 3.75 µM ([1]; Well no.=7376): 98.1% | remaining activity at 1.25 µM ([2]; Well no.=7376): 97.9%

CSc1ccc2c(c1)N(CCC1CCCCN1C)c1ccccc1S2 (stereo not shown) [Thioridazine hydrochloride]
remaining activity at 3.75 µM ([1]; Well no.=1422): 95.6% | remaining activity at 1.25 µM ([2]; Well no.=1422): 96.4%

CSc1ccc2c(c1)N(CCC1CCCCN1C)c1ccccc1S2 (stereo not shown) [Thioridazine]
remaining activity at 3.75 µM ([1]; Well no.=2140): 96.6% | remaining activity at 1.25 µM ([2]; Well no.=2140): 97.3%

CN1CCN(CC/C=C2/c3ccccc3Sc3ccc(S(=O)(=O)N(C)C)cc32)CC1 [Thiothixene hydrochloride]
remaining activity at 3.75 µM ([1]; Well no.=1281): 112% | remaining activity at 1.25 µM ([2]; Well no.=1281): 106%

NC(N)=S [Thiourea]
remaining activity at 3.75 µM ([1]; Well no.=4097): 101% | remaining activity at 1.25 µM ([2]; Well no.=4097): 98.1%

CCCCC[C@H](O)/C=C/[C@H]1OC(O)C[C@H](O)[C@@H]1C/C=C\CCCC(=O)O (stereo partly shown) [Thromboxane B2]
remaining activity at 3.75 µM ([1]; Well no.=4286): 98.5% | remaining activity at 1.25 µM ([2]; Well no.=4286): 99.3%

Cc1cn([C@H]2C[C@H](O)[C@@H](CO)O2)c(=O)[nH]c1=O [Thymidine]
remaining activity at 3.75 µM ([1]; Well no.=7349): 106% | remaining activity at 3.75 µM ([1]; Well no.=7770): 97.4% | remaining activity at 1.25 µM ([2]; Well no.=7349): 104% | remaining activity at 1.25 µM ([2]; Well no.=7770): 94.3%

Cc1c[nH]c(=O)[nH]c1=O [Thymine]
remaining activity at 3.75 µM ([1]; Well no.=6629): 108% | remaining activity at 1.25 µM ([2]; Well no.=6629): 103%

CC1=CC(=O)C(C(C)C)=CC1=O [Thymoquinone]
remaining activity at 3.75 µM ([1]; Well no.=3567): 102% | remaining activity at 3.75 µM ([1]; Well no.=4095): 101% | remaining activity at 1.25 µM ([2]; Well no.=3567): 101% | remaining activity at 1.25 µM ([2]; Well no.=4095): 102%

CCN(CC)CCNC(=O)c1cc(S(C)(=O)=O)ccc1OC [Tiapride hydrochloride]
remaining activity at 3.75 µM ([1]; Well no.=1185): 100% | remaining activity at 1.25 µM ([2]; Well no.=1185): 101%

C#C[C@]1(O)CC[C@H]2[C@@H]3[C@H](C)CC4=C(CCC(=O)C4)[C@H]3CC[C@@]21C [Tibolone]
remaining activity at 3.75 µM ([1]; Well no.=1954): 98.3% | remaining activity at 1.25 µM ([2]; Well no.=1954): 97.8%

CCCSc1nc(N[C@@H]2C[C@H]2c2ccc(F)c(F)c2)c2nnn([C@@H]3C[C@H](OCCO)[C@@H](O)[C@H]3O)c2n1 [Ticagrelor]
remaining activity at 3.75 µM ([1]; Well no.=4738): 108% | remaining activity at 3.75 µM ([1]; Well no.=6329): 102% | remaining activity at 1.25 µM ([2]; Well no.=4738): 105% | remaining activity at 1.25 µM ([2]; Well no.=6329): 101%

CC1(C)S[C@@H]2[C@H](NC(=O)[C@H](C(=O)O)c3ccsc3)C(=O)N2[C@H]1C(=O)O [Ticarcillin (disodium)]
remaining activity at 3.75 µM ([1]; Well no.=7782): 109% | remaining activity at 1.25 µM ([2]; Well no.=7782): 105%

Clc1ccccc1CN1CCc2sccc2C1 [Ticlopidine (hydrochloride)]
remaining activity at 3.75 µM ([1]; Well no.=6270): 109% | remaining activity at 3.75 µM ([1]; Well no.=8213): 100% | remaining activity at 1.25 µM ([2]; Well no.=6270): 107% | remaining activity at 1.25 µM ([2]; Well no.=8213): 108%

Clc1ccccc1CN1CCc2sccc2C1 [Ticlopidine]
remaining activity at 3.75 µM ([1]; Well no.=1746): 92.5% | remaining activity at 1.25 µM ([2]; Well no.=1746): 92.5%

COc1ccc2cc(-c3nc(-c4ccc([S+](C)[O-])cc4)[nH]c3-c3ccncc3)ccc2c1 (stereo not shown) [Tie2 kinase inhibitor]
remaining activity at 3.75 µM ([1]; Well no.=4965): 90.7% | remaining activity at 1.25 µM ([2]; Well no.=4965): 91%

O=C(O)COc1ccc(C(=O)c2cccs2)c(Cl)c1Cl [Tienilic Acid]
remaining activity at 3.75 µM ([1]; Well no.=5851): 102% | remaining activity at 1.25 µM ([2]; Well no.=5851): 105%

CN(C)c1cc(NC(=O)CNC(C)(C)C)c(O)c2c1C[C@H]1C[C@H]3[C@H](N(C)C)C(O)=C(C(N)=O)C(=O)[C@@]3(O)C(O)=C1C2=O [Tigecycline]
remaining activity at 3.75 µM ([1]; Well no.=4813): 107% | remaining activity at 1.25 µM ([2]; Well no.=4813): 99%

CC[C@H]1OC(=O)C[C@@H](O)[C@H](C)[C@@H](O[C@@H]2O[C@H](C)[C@@H](O)[C@H](N(C)C)[C@H]2O)[C@@H](CCN2C[C@H](C)C[C@H](C)C2)C[C@@H](C)C(=O)/C=C/C(C)=C/[C@@H]1CO[C@@H]1O[C@H](C)[C@@H](O)[C@@H](OC)[C@H]1OC [Tilmicosin]
remaining activity at 3.75 µM ([1]; Well no.=4746): 96.6% | remaining activity at 1.25 µM ([2]; Well no.=4746): 97.6%

CCS(=O)(=O)CCn1c([N+](=O)[O-])cnc1C [Tinidazole]
remaining activity at 3.75 µM ([1]; Well no.=1958): 94.1% | remaining activity at 1.25 µM ([2]; Well no.=1958): 93%

Clc1ccc(C(Cn2ccnc2)OCc2ccsc2Cl)c(Cl)c1 (stereo not shown) [Tioconazole]
remaining activity at 3.75 µM ([1]; Well no.=1956): 104% | remaining activity at 1.25 µM ([2]; Well no.=1956): 103%

C/N=C(/NC#N)NCCSCc1csc(NC(=N)N)n1 [Tiotidine]
remaining activity at 3.75 µM ([1]; Well no.=1877): 98.9% | remaining activity at 1.25 µM ([2]; Well no.=1877): 98.5%

C[N+]1(C)[C@@H]2C[C@@H](OC(=O)C(O)(c3cccs3)c3cccs3)C[C@H]1[C@@H]1O[C@@H]12 [Tiotropium (Bromide)]
remaining activity at 3.75 µM ([1]; Well no.=7533): 95.1% | remaining activity at 1.25 µM ([2]; Well no.=7533): 96.7%
